Assay results: US20230364062A1, “METHOD OF TREATING MYELOID MALIGNANCIES” (Yeda Research and Development Co. Ltd., priority 2020, published 2023)

Key:
[1] = system: AML2 SRSF2 (P95H) mutant cell line; assay: Cell viability assay (CellTiter-Glo), drug screen and dose response; assay type: cell-based, human; conditions: validation and dose response after primary screen, 48 hours
Text: (§1) Compound Libraries: Three commercial libraries were used in the screening process: the Bioactive library (New Selleck Collection 2020, n=3727), the Kinom Set (n=187), and the Epigenetic chemical probe library (Structural Genomics Consortium, n=97).
(§2) Cell viability assay: Compounds were dispensed in 384-well plates using an ECHO® 555 liquid handler (Labcyte) and sealed. On day of experiment, the concentrations of isogenic and respective wildtype cell lines were counted using a Countess™ II FL (Invtrogen™) and re-suspended at 40,000 cell/ml. 50 μL of medium was dispensed using a Multidrop™ Combi Reagent Dispenser (Thermo Fisher), bringing the total number of cells in each well to 2000. Cells were incubated for 48 hours. On day of measurement, plates were centrifuged and supernatant was removed using a Washer/Dispenser II (GNF Systems). A Washer/Dispenser II was then used to dispense CellTiter-Glo® (G7572, Promega) as per the manufacturer's instructions. The luminescence signal was then measured using a PHERAstar® FSX (BMG Labtech) and results were analyzed using Genedata Screener®. The viability of treated cells was normalized to a vehicle control, contained on each plate.
(§3) Next, a sensitivity screening of […] chemical compounds from three commercial libraries: the Bioactive collection (New Selleck Collection 2020, n=3727), the Kinom Set (n=187), and the Epigenetic chemical probe library (Structural Genomics Consortium, n=97) was carried out on the isogenic cell lines. Following a primary screen, compounds with higher cytotoxic efficacy in the mutant versus WT cells were chosen for further validation and dose response analysis. Both mutant MOLM14 and AML2 cell lines responded to various ROCK inhibitors (ROCKi), including, GSK429286A, GSK180736A, Y-39983 and specifically to RKI-1447.

[2] = system: MOLM14 SRSF2 (P95H) mutant cell line; assay: as above; assay type: cell-based, human; conditions: validation and dose response after primary screen, 48 hours
Text: as §1, §2, §3

[3] = system: MOLM14 SRSF2 mutant cell line; assay: Cell cycle analysis after RKI-1447; assay type: cell-based, human
[4] = system: MOLM14 wild type cell line; assay: Cell cycle analysis after RKI-1447; assay type: cell-based, human; conditions: 0.5 μM RKI-1447 compared to untreated control
Text: (§4) Rho-associated protein kinases (ROCKs or Rho kinases) are key regulators of the actin cytoskeleton and are required for separating cells' duplicated genetic material during cell division to ensure proper partitioning of DNA in to daughter cells. Actin is also linked to RNA polymerase function and associated with many heterogeneous nuclear ribonucleoproteins, and may thus act to affect pre-mRNA processing and regulate transcription. Given this knowledge of ROCKs and actin, it was hypothesized that disrupting the function of ROCKs will result in cell cycle and RNA splicing alteration. In order to test this hypothesis, RNA sequencing and proteomics were performed on isogenic lines prior to and following exposure to RKI-1447. […] One of the significant up regulated protein is CDC20. CDC20 is an activator of anaphase-promoting complex/cyclosome (APC/C), and APC/Cdc 20 activity is critical for metaphase/anaphase transition.

SRSF2 mutant cells = assay: Nuclear morphology and microtubule structure by confocal microscopy; assay type: cell-based, human; conditions: SRSF2 mutant cells following RKI-1447 treatment
Text: The nuclear morphology and microtubule structure of SRSF2 mutant cells was examined by confocal microscopy following RKI-1447 treatment. […] The surface area of the nucleus of mutant cells was considerably bigger than that of WT cells, and the sphericity was reduced (FIGS. 5B-D).

[5] = system: MOLM14 SRSF2 mutant cells; assay: MOLM14 cell line xenograft model of AML in NSG mice; assay type: in vivo; conditions: NSG mice transplanted with MOLM14 cell line model; compared to the control
SRSF2 mutated AML = assay: AML-PDX models with SRSF2 mutations in NSG mice; assay type: in vivo; conditions: two AML-PDX samples; 3 weeks of treatment from day 35; versus carrier control
Method: To evaluate whether SRSF2 mutated AML is sensitive to RKI-1447, the present inventors studied its effect in vivo with cell line and patient-derived xenograft model of AML. […] Two AML-PDX models with SRSF2 mutations were established that recapitulate the disease in vivo. NSG mice (n=5-10/sample) were injected with one to five million CD3− cells from two patients with SRSF2 mutated AML through femur. On day 35 the animals were randomized to RKI-1447 or a carrier control. Following 3 weeks of treatment week, engraftment of AML cells in BM was evaluated using flow cytometry. Both lymphoid (CD19+ B cells) and myeloid lineages (CD45dimCD33+) are detected, but dominantly are myeloid graft, in our AML-PDX models. […] To determine the grafts origin from srsf2 mutated LSC/ pre-leukaemic HSCs, human cells (CD45+) were isolated from the total BM cells and amplicon sequence of SRSF2 was performed.

[6] = system: isogenic SRSF2 mutant and wild-type cell lines; assay: RNA sequencing and proteomics with pre ranked GSEA before and after RKI-1447; assay type: cell-based, human; conditions: both mutant and wild-type cells after exposure to RKI-1447
Text: as §4

[7] = 0.5 μM RKI-1447 compared to untreated control, MOLM14 SRSF2 mutant

SMILES	response of mutant cell line to ROCK inhibitor (cytotoxic efficacy mutant versus WT) [1]	response of mutant cell line to ROCK inhibitor (cytotoxic efficacy mutant versus WT) [2]	cell cycle difference in MOLM14 SRSF2 mutant relative to wild type ([3]; 0.5 μM RKI-1447, P<0.01)	percentage of G0/G1 phase cells [3, 7]	percentage of G2/M and S phase cells [3, 7]	percentage of G0/G1 phase cells [4]	percentage of G2/M and S phase cells [4]	apoptosis (SRSF2 mutant cells)	nuclear morphology (SRSF2 mutant cells)	engraftment (number of CD45+ cells) [5]	engraftment rate of AML cells in BM (flow cytometry) (SRSF2 mutated AML)	pre ranked GSEA, regulated pathways [6]
CC1=C(C(=O)Nc2ccc3[nH]ncc3c2)C(c2ccc(F)cc2)NC(=O)N1 (stereo not drawn) [GSK180736A]	responded	responded	–	–	–	–	–	–	–	–	–	–
CC1=C(C(=O)Nc2cc3cn[nH]c3cc2F)C(c2ccc(C(F)(F)F)cc2)CC(=O)N1 (stereo not drawn) [GSK429286A]	responded	responded	–	–	–	–	–	–	–	–	–	–
O=C(NCc1cccc(O)c1)Nc1nc(-c2ccncc2)cs1 [RKI-1447]	responded	responded	more pronounced	decrease in the percentage	higher percentage	decrease in the percentage	higher percentage	apoptosis	nucleus invagination and deformations	significant decrease of engraftment	significant lower engraftment rate	cell cycle is one of the most significantly up-regulated pathways
C[C@@H](N)c1ccc(C(=O)Nc2ccnc3[nH]ccc23)cc1 [Y-39983]	responded	responded	–	–	–	–	–	–	–	–	–	–
